The values that follow come from patent US20250302846A1, “ANTIBIOTIC COMPOSITION AND METHODS OF USE THEREOF” (THE REGENTS OF THE UNIVERSITY OF COLORADO A BODY CORPORATE, priority 2022, published 2025).

For one data set, the system named is RAW 264.7 cells. As to the kind of experiment: Mitochondrial membrane potential with TMRM. As to conditions: uninfected RAW 264.7 cells; D66 first two hours; CCCP 7 μM.
Another data set relates to S. Typhimurium. The experiment in a line: Propidium iodide membrane barrier assay. Type of data set: cell-based. As to conditions: LB with PMB [0.5 μg/mL]; D66 at 2x MIC95; SDS [0.005%] positive control. The method, then: FIG. 3A-F. D66 rapidly perturbs the bacterial cytoplasmic membrane with minor disruption of barrier function. Mid-log phase S. Typhimurium cells grown in LB with 0.5 μg/mL PMB were used for all experiments. A) Cell membrane potential was monitored with the fluorescent dye DiSC3 (5). Cells were treated at time 0 with DMSO, JD1 [70 μM], or D66. Data were normalized to DMSO at time 0 and corrected for the quenching effect of D66 (FIG. 6A, B) B) Cell membrane permeability was monitored by PI fluorescence. Cells were treated at time 0 with DMSO, SDS [0.005%] or D66. Samples were processed at the time points shown. A one-way ANOVA with a Dunnet's multiple comparison test, * P<0.005. C-F) Growth curves and kill-curves of cells treated at time 0 with either DMSO or D66. Culture aliquots were monitored for OD600 (C, E) or plated for enumeration of CFU (D, F). Data are presented as fold change. Mean and SEM of three biological replicates with technical triplicates are shown in all panels.
Propidium iodide membrane barrier assays: Compound, DMSO, or SDS was added to mid-log phase cells to the desired concentration, and cultures were sampled at 0, 10, 15, 20, 30 and 45 minutes. Five minutes before harvesting, PI [10 μg/mL] (Life Technologies) was added. Cells were pelleted, washed twice, resuspended in PBS, and monitored (ex535/em617 nm) using a BioTek Synergy H1 plate reader.

The test system of a further data set is staphylococcal strains. As to the kind of experiment: MIC95 quoted for staphylococcal persister and biofilm experiments. It is filed as cell-based. As to conditions: read-out: MIC95. The method, then: A-D) Overnight cultures of the indicated strains were treated at time 0 with DMSO, ciprofloxacin [4 μg/mL], vancomycin [10 μg/mL], or the corresponding MIC95 concentration of D66 (1x MIC95=130 μM, 49 μg/mL). Cultures were plated for enumeration of CFU at time points indicated. Mean and SEM of three biological replicates. E) RAW 264.7 macrophage-like cells and HeLa cells were infected with S. aureus USA300, at MOIs of 0.5 and 2.5, respectively. Cells were treated two hours after infection with DMSO (gray circle on Y axis), or dilutions of D66 from 40 μM. After 8 hours of infection, cells were lysed and plated for enumeration of CFU. Mean and SEM of biological duplicates performed with technical triplicates each with six dilutions of D66. The IC50 value that was calculatable is indicated.
Biofilm formation was monitored after 18 hours in TSB with subinhibitory concentrations of DMSO, rifampin (1x MIC95=0.05 μg/mL), vancomycin (1x MIC95=1 μg/mL), or D66 (1x MIC95=130 μM). A-D) Crystal violet staining for accumulated biofilm mass measured at A595. Mean and […]

Values after ≈ are worked out from the molar mass of the structure shown. Where two headings read alike, the source gives them in different places.

For the compound `N#CC(C#N)=NNc1cccc(Cl)c1` [CCCP, carbonyl cyanide m-chlorophenyl hydrazone, reference compound], the “TMRM fluorescence (mitochondrial membrane potential)” value with RAW 264.7 cells is listed as “decreased TMRM fluorescence”. `CCCCCCCCCCCCOS(=O)(=O)[O-].[Na+]` [SDS, reference compound]: the “time of treatment after which PI signal increased” value in the data set on S. Typhimurium was found to be 10 min.

Turning to `CO[C@H]1/C=C/O[C@@]2(C)Oc3c(C)c(O)c4c(O)c(c(/C=N/N5CCN(C)CC5)c(O)c4c3C2=O)NC(=O)/C(C)=C\C=C\[C@H](C)[C@H](O)[C@@H](C)[C@@H](O)[C@@H](C)[C@H](OC(C)=O)[C@@H]1C` [rifampin, reference compound], in the data set with staphylococcal strains (staphylococcal strains), the MIC was found to be 0.05 mg/L (≈ 0.0608 µM). As to `CN[C@H](CC(C)C)C(=O)N[C@H]1C(=O)N[C@@H](CC(N)=O)C(=O)N[C@H]2C(=O)N[C@H]3C(=O)N[C@H](C(=O)N[C@H](C(=O)O)c4cc(O)cc(O)c4-c4cc3ccc4O)[C@H](O)c3ccc(c(Cl)c3)Oc3cc2cc(c3O[C@@H]2O[C@H](CO)[C@@H](O)[C@H](O)[C@H]2O[C@H]2C[C@](C)(N)[C@H](O)[C@H](C)O2)Oc2ccc(cc2Cl)[C@H]1O` [vancomycin, reference compound], the MIC in the data set with staphylococcal strains stood at 1 mg/L (≈ 0.69 µM).
